Measurements reported in ChEMBL document CHEMBL1671739, “Reservoir of antimicrobial resistance determinants associated with horizontal gene transfer in clinical isolates of the genus Shewanella” (2010).
≈ marks a conversion by molar mass, not a printed value.

Key:
Type in all cases: functional
Shewanella algae [1] = assay: Antimicrobial activity against Shewanella algae Sa9 harboring intI1, intI2, sul1 and sul2 genes by CLSI method
Shewanella algae [2] = assay: Antimicrobial activity against Shewanella algae Sa2 harboring intI1, intI2 and sul1 genes by CLSI method
Shewanella algae [3] = assay: Antimicrobial activity against Shewanella algae Sa78 harboring sul2 gene by CLSI method
Shewanella putrefaciens [4] = assay: Antimicrobial activity against Shewanella putrefaciens Sp31 harboring intI1 and beta-lactamase OXA-48 like genes by CLSI method
Shewanella algae [5] = assay: Antimicrobial activity against Shewanella algae Sa82 harboring intI1, intI2, sul1 and sul2 genes by CLSI method
Shewanella algae [6] = assay: Antimicrobial activity against Shewanella algae Sa74 harboring intI1, intI2, sul1 and sul2 genes by CLSI method
Shewanella putrefaciens [7] = assay: Antimicrobial activity against Shewanella putrefaciens Sp95 harboring intI1,sul1,sul2 and beta-lactamase OXA-48 like genes by CLSI method
Shewanella algae [8] = assay: Antimicrobial activity against Shewanella algae Sa10 harboring intI1, intI2, sul1 and sul2 genes by CLSI method
Shewanella algae [9] = assay: Antimicrobial activity against Shewanella algae Sa392 harboring intI1, intI2, sul1 and sul2 genes by CLSI method
Shewanella putrefaciens [10] = assay: Antimicrobial activity against Shewanella putrefaciens Sp117 harboring intI1,sul1,sul2 and beta-lactamase OXA-48 like genes by CLSI method

SMILES | MIC (Shewanella algae [1]) | MIC (Shewanella algae [2]) | MIC (Shewanella algae [3]) | MIC (Shewanella putrefaciens [4]) | MIC (Shewanella algae [5]) | MIC (Shewanella algae [6]) | MIC (Shewanella putrefaciens [7]) | MIC (Shewanella algae [8]) | MIC (Shewanella algae [9]) | MIC (Shewanella putrefaciens [10])
C[C@@H](O)[C@H]1C(=O)N2C(C(=O)O)=C(SCCNC=N)C[C@H]12 [IMIPENEM ANHYDROUS] | 2 µg/mL (≈ 6.68 µM) | 0.25 µg/mL (≈ 0.835 µM) | 4 µg/mL (≈ 13.4 µM) | 0.25 µg/mL (≈ 0.835 µM) | 0.25 µg/mL (≈ 0.835 µM) | 4 µg/mL (≈ 13.4 µM) | 0.5 µg/mL (≈ 1.67 µM) | 8 µg/mL (≈ 26.7 µM) | 4 µg/mL (≈ 13.4 µM) | 1 µg/mL (≈ 3.34 µM)
C[C@@H](O)[C@H]1C(=O)N2C(C(=O)O)=C(S[C@@H]3CN[C@H](C(=O)N(C)C)C3)[C@H](C)[C@H]12 [MEROPENEM] | 0.125 µg/mL (≈ 0.326 µM) | 0.032 µg/mL (≈ 0.0834 µM) | 0.25 µg/mL (≈ 0.652 µM) | 0.125 µg/mL (≈ 0.326 µM) | 0.38 µg/mL (≈ 0.991 µM) | 0.0094 µg/mL (≈ 0.0245 µM) | 0.25 µg/mL (≈ 0.652 µM) | 1 µg/mL (≈ 2.61 µM) | 1 µg/mL (≈ 2.61 µM) | 4 µg/mL (≈ 10.4 µM)
